A word on the EC50: it is the concentration giving half of the maximal effect.

The text below walks through data of patent US20240035973A1, “METHODS AND COMPOSITIONS OF STABLE THALLIUM FLUX ASSAYS FOR DETECTING MODULATORS OF ION CHANNELS” (ION Biosciences, priority 2022, published 2024).

Where two headings read alike, the source gives them in different places.

Assay [1] concerns the target T1, GIRK (Homo sapiens, UniProt P48051+P48549).
T1 sequence (P48549 1-501): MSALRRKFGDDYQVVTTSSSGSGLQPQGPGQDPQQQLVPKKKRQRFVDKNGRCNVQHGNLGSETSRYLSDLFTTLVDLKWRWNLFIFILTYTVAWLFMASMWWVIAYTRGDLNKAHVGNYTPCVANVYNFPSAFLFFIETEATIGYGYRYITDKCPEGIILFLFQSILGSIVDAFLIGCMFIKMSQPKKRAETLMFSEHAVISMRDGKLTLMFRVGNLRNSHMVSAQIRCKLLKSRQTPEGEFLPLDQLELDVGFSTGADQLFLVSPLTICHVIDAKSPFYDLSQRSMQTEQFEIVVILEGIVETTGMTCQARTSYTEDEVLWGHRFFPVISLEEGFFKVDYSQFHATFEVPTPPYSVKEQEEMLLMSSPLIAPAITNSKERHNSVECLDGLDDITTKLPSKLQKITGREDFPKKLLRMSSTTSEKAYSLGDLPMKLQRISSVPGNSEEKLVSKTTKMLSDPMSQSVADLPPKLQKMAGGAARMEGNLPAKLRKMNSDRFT
T1 sequence (P48051 1-423): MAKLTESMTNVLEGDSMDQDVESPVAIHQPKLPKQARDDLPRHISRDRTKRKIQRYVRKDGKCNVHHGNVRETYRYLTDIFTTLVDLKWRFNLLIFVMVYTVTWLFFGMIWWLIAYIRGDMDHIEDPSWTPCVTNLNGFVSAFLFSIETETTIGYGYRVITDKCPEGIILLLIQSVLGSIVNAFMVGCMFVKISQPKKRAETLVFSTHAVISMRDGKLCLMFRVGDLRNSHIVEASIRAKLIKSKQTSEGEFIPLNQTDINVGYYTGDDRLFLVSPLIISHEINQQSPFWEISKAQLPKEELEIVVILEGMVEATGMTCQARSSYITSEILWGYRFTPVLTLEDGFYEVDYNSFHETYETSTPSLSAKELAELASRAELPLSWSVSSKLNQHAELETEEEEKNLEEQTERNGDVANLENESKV
Further details: expressed in transfected cells; host or cells: CHO-K1 cells overexpressing GIRK channels. The note with it: potassium indicator; plate reader or microscopy; read-out: EC50, literature reported value (calculated EC50s in line with it); cited from earlier work.

For assay [2], the target named is T1, GIRK. Put plainly: traditional thallium flux assay (influx), dose response. To be noted: traditional thallium flux method, CHO GIRK cells. It counts as cell-based. As for the experimental part: FIG. 5: (Left) Overlay of normalized dose response curves acquired using new method. Data was acquired using different analytical methods or instruments, and all three result in similar profiles and reported EC50 values.
In a comparative test of the efflux method disclosed herein, EC50 values were determined using VU551 as the effector. Three different instruments were used to monitor the change in fluorescence: 1- kinetic imaging plate reader (Hamamatsu FDSS), 2 - fluorescent microscope; 3- fluorescent plate reader. FIG. 5 depicts an overlay of normalized dose response curves acquired using the efflux method described herein. Regardless of the method of data collection, all three instruments provided similar profiles and reported similar EC50 values. In the right graph of FIG. 5, a dose response curve acquired using traditional thallium flux assay methods is shown. […] The use of a plate reader to determine the EC50 in the efflux method produced the closest result to the traditional method.

In another assay the target is T2, GIRK1/2 (Homo sapiens, UniProt P48051+P48549).
T2 construct: expressed in transfected cells; host or cells: CHO (Chinese hamster ovary) cells overexpressing GIRK1 and GIRK2
T2 sequence (P48549 1-501): T1 sequence (P48549 1-501)
T2 sequence (P48051 1-423): T1 sequence (P48051 1-423)
In words: thallium efflux assay by flow cytometry in CHO GIRK1/2 cells. It counts as cell-based. As for the experimental part: CHO GIRK cells were treated with HEPES-Buffered Hanks Balanced Salt Solution (HHBSS, Control) or GIRK activator, VU0466551 (VU551). Data was acquired 50 minutes after addition of 1 μM VU551 using a BD Accuri C6 Flow Cytometer. […] FIG. 18 depicts an overlay of histograms of CHO GIRK1/2 cell fluorescence in treated and control cells.
FIG. 19 depicts the kinetic profile of CHO GIRK1/2 median cell fluorescence. Sample data was acquired before and at different time points after the addition of 3 μM GIRK activator, VU0466551 (VU551) or HHBSS (control). A slow increase in fluorescence is observed in the untreated group.

Regarding `Cc1cc(NC(=O)Nc2ccc(F)c(F)c2)n(Cc2ccccc2)n1` [VU551], the EC50 on GIRK [1] was around 75 nM; on GIRK [2] it was 77 nM. The “Mean cell fluorescence of the treated group” value on GIRK1/2 (1 μM, 50 minutes after addition, BD Accuri C6 Flow Cytometer, control 4.5M RFUs) is 2.5 M. The “change in median cell fluorescence (kinetic profile)” value on GIRK1/2 (3 μM, before and at different time points after addition) is “rapid loss in fluorescence”.
